Experimental data as given in BindingDB's records for patent US9776990 (Abbvie, 2017).
pKi: −log10 of the molar value.

Biological target: Bromodomain-containing protein 4 (Homo sapiens, UniProt O60885)

Structure (SMILES)	pKi
Cc1[nH]c(-c2cccc3ccccc23)c2c1C(=O)CCC2 [US9776990, Example 19]	4.71
Cc1[nH]c(-c2ccccc2CN2C(=O)c3ccccc3C2=O)c2c1C(=O)CCC2 [US9776990, Example 26]	4.98
Cc1[nH]c(-c2ccccc2Oc2ccccc2)c2c1C(=O)CC(CC(C)C)C2 (stereo not drawn) [US9776990, Example 68]	4.65
